Laboratory results from ChEMBL document CHEMBL1201862, “PubChem BioAssay data set” (2004).
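All cell lines were grown in 96-well plates and treated with compound for 48 hours. Here, GI50 denotes the concentration required for 50% inhibition of growth.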 Active and inactive are the calls of the source. Rule as the data show it: active = GI50 up to about 1.1 µM and inactive = higher.

Experiments:
Experiment in all cases: growth of human tumour cells (NCI), 48 h
[1] = test system: NCI-H522
[2] = test system: Malme-3M
[3] = test system: UACC-257
[4] = test system: OVCAR-5
[5] = test system: UO-31
[6] = test system: OVCAR-4
[7] = test system: A549
[8] = test system: HCT-15
[9] = test system: SK-MEL-5
[10] = test system: A498
[11] = test system: HL-60
[12] = test system: RXF 393
[13] = test system: DU-145
[14] = test system: K562
[15] = test system: HOP-62
[16] = test system: HOP-92
[17] = test system: SF-268
[18] = test system: HT-29
[19] = test system: DLD-1
[20] = test system: KM12
[21] = test system: BT-549
[22] = test system: SF-539
[23] = test system: NCI-H460
[24] = test system: ACHN
[25] = test system: HOP-18
[26] = test system: U-251
[27] = test system: LOX IMVI
[28] = test system: COLO 205
[29] = test system: LXFL 529
[30] = test system: IGROV-1
[31] = test system: SK-MEL-2
[32] = test system: SNB-19
[33] = test system: SR
[34] = test system: CAKI-1
[35] = test system: RPMI-8226
[36] = test system: SK-OV-3
[37] = test system: SF-295
[38] = test system: T47D
[39] = test system: MCF7
[40] = test system: CCRF-CEM
[41] = test system: KM-20L2
[42] = test system: NCI-H226
[43] = test system: MDA-N
[44] = test system: OVCAR-8
[45] = test system: 786-0
[46] = test system: MDA-MB-435
[47] = test system: NCI-H23
[48] = test system: RXF 631
[49] = test system: SNB-78
[50] = test system: PC-3
[51] = test system: M19-MEL
[52] = test system: UACC-62
[53] = test system: XF498
[54] = test system: NCI/ADR-RES
[55] = test system: DMS-114
[56] = test system: SNB-75
[57] = test system: OVCAR-3
[58] = test system: Hs-578T
[59] = test system: HCT-116
[60] = test system: SW-620
[61] = test system: MOLT-4
[62] = test system: DMS-273
[63] = test system: EKVX
[64] = test system: HCC 2998
[65] = test system: M14
[66] = test system: TK-10
[67] = test system: SK-MEL-28
[68] = test system: SN12C

## CCN(CC)CCNc1ccc2ncn3c4ccc(OC)cc4c(=O)c1c23
[1]
  GI50: 2.32 µM (inactive)
[2]
  GI50: 9.12 µM (inactive)
[3]
  GI50: 11.9 µM (inactive)
[4]
  GI50: 8.61 µM (inactive)
[5]
  GI50: 1.82 µM (inactive)
[6]
  GI50: 1.74 µM (inactive)
[7]
  GI50: 2.91 µM (inactive)
[8]
  GI50: 1.57 µM
[9]
  GI50: 6.07 µM (inactive)
[10]
  GI50: 6.7 µM (inactive)
[11]
  GI50: 3.49 µM (inactive)
[12]
  GI50: 2.23 µM (inactive)
[13]
  GI50: 8.28 µM (inactive)
[14]
  GI50: 2.75 µM (inactive)
[15]
  GI50: 5.21 µM (inactive)
[16]
  GI50: 4.75 µM (inactive)
[17]
  GI50: 2.21 µM (inactive)
[18]
  GI50: 1.28 µM (inactive)
[19]
  GI50: 1.08 µM (active)
[20]
  GI50: 1.78 µM (inactive)
[21]
  GI50: 16.3 µM (inactive)
[22]
  GI50: 4.24 µM (inactive)
[23]
  GI50: 0.646 µM (active)
[24]
  GI50: 1.05 µM (active)
[25]
  GI50: 17 µM (inactive)
[26]
  GI50: 1.38 µM (inactive)
[27]
  GI50: 1.51 µM (inactive)
[28]
  GI50: 1.49 µM (inactive)
[29]
  GI50: 2.46 µM (inactive)
[30]
  GI50: 4.35 µM (inactive)
[31]
  GI50: 9.25 µM (inactive)
[32]
  GI50: 3.76 µM (inactive)
[33]
  GI50: 1.85 µM (inactive)
[34]
  GI50: 5.65 µM (inactive)
[35]
  GI50: 1.21 µM (inactive)
[36]
  GI50: 7.71 µM (inactive)
[37]
  GI50: 2.28 µM (inactive)
[38]
  GI50: 20 µM (inactive)
[39]
  GI50: 57 µM (inactive)
[40]
  GI50: 1.34 µM (inactive)
[41]
  GI50: 0.964 µM (active)
[42]
  GI50: 4.31 µM (inactive)
[43]
  GI50: 5.18 µM (inactive)
[44]
  GI50: 0.836 µM (active)
[45]
  GI50: 2.22 µM (inactive)
[46]
  GI50: 5.21 µM (inactive)
[47]
  GI50: 4.79 µM (inactive)
[48]
  GI50: 1.61 µM (inactive)
[49]
  GI50: 14 µM (inactive)
[50]
  GI50: 3.83 µM (inactive)
[51]
  GI50: 3.73 µM (inactive)
[52]
  GI50: 16 µM (inactive)
[53]
  GI50: 5.02 µM (inactive)
[54]
  GI50: 0.885 µM (active)
[55]
  GI50: 11.5 µM (inactive)
[56]
  GI50: 7.08 µM (inactive)
[57]
  GI50: 7.78 µM (inactive)
[58]
  GI50: 11.1 µM (inactive)
[59]
  GI50: 0.592 µM (active)
[60]
  GI50: 1.36 µM (inactive)
[61]
  GI50: 0.31 µM (active)
[62]
  GI50: 1.67 µM (inactive)
[63]
  GI50: 14.9 µM (inactive)
[64]
  GI50: 2.78 µM (inactive)
[65]
  GI50: 5.21 µM (inactive)
[66]
  GI50: 10.4 µM (inactive)
[67]
  GI50: 14.3 µM (inactive)
[68]
  GI50: 2.14 µM (inactive)
